Test results reported in patent US20200222474A1, “COMPOSITIONS AND METHODS FOR INCREASING PHYTOCHEMICAL BIOAVAILABLITY AND BIOACTIVITY” (North Carolina State University, priority 2017, published 2020).

Test system: L. acidophilus NCFM
Assay: RNA-seq transcriptional analysis of L. acidophilus NCFM growing on plant glycosides
Format: cell-based, Lactobacillus acidophilus
[1] = LBA0329 Putative cell division protein, COG D
[2] = LBA0466 Hypothetical protein, COG C
[3] = LBA0500 MSM operon repressor, COG K
[4] = LBA0545 Hypothetical protein, COG L
[5] = LBA0547 Putative site-specific recombinase, COG L
[6] = LBA0573 Putative transcriptional regulator, COG K
[7] = LBA0607 Putative transcriptional regulator, COG K
[8] = LBA0672 Putative phosphate starvation inducible protein stress related, COG J
[9] = LBA0753 Multi-drug-type permease, COG GEPR
[10] = LBA0886 Sugar kinase-putative transcriptional regulator, COG KG
[11] = LBA0887 Hypothetical protein, COG C
[12] = LBA0897 Putative Cro-like protein, COG K
[13] = LBA0910 L-lactate dehydrogenase, COG C
[14] = LBA1021 Putative transcriptional regulator, COG K
[15] = LBA1220 Pyridine mercuric reductase, COG C
[16] = LBA1392 Mucus binding protein precursor Mub, COG J
[17] = LBA1411 Fumarate reductase flavoprotein subunit, COG CS
[18] = LBA1436 Glycerol uptake facilitator protein, COG G
[19] = LBA1457 Galactose-1-epimerase, COG G
[20] = LBA1458 Galactose-1-phosphate uridylyltransferase, COG G
[21] = LBA1462 Beta-galactosidase, COG G
[22] = LBA1463 Lactose permease, COG G
[23] = LBA1465 Transcription repressor of beta-galactosidasegene, COG K
[24] = LBA1467 Beta-galactosidase large subunit (lactase), COG G
[25] = LBA1468 Beta-galactosidase small subunit, COG G

O=c1ccc2cc(O[C@@H]3O[C@H](CO)[C@@H](O)[C@H](O)[C@H]3O)c(O)cc2o1 [Esculin]
Log2 differential normalized TPM ratio compared to glucose (LBA0016 Fructokinase, COG KG): 1.9 | Log2 differential normalized TPM ratio compared to lactose (LBA0016 Fructokinase, COG KG): 0.7 | Transcripts per million (rpm) (LBA0016 Fructokinase, COG KG): 347.8 rpm | Log2 differential normalized TPM ratio compared to glucose [1]: 2.4 | Log2 differential normalized TPM ratio compared to lactose [1]: 1.9 | Transcripts per million (rpm) [1]: 88.3 rpm | Log2 differential normalized TPM ratio compared to glucose [2]: 2 | Log2 differential normalized TPM ratio compared to lactose [2]: 0.5 | Transcripts per million (rpm) [2]: 408.4 rpm | Log2 differential normalized TPM ratio compared to glucose [3]: 0.5 | Log2 differential normalized TPM ratio compared to lactose [3]: −1.1 | Transcripts per million (rpm) [3]: 78.4 rpm | Log2 differential normalized TPM ratio compared to glucose [4]: 1.9 | Log2 differential normalized TPM ratio compared to lactose [4]: −0.1 | Transcripts per million (rpm) [4]: 286.5 rpm | Log2 differential normalized TPM ratio compared to glucose [5]: 2.1 | Log2 differential normalized TPM ratio compared to lactose [5]: 0.4 | Transcripts per million (rpm) [5]: 50.6 rpm | Log2 differential normalized TPM ratio compared to glucose [6]: 2.6 | Log2 differential normalized TPM ratio compared to lactose [6]: 2.5 | Transcripts per million (rpm) [6]: 592 rpm | Log2 differential normalized TPM ratio compared to glucose [7]: 1.8 | Log2 differential normalized TPM ratio compared to lactose [7]: 1.4 | Transcripts per million (rpm) [7]: 179.3 rpm | Log2 differential normalized TPM ratio compared to glucose [8]: 1.8 | Log2 differential normalized TPM ratio compared to lactose [8]: 0.9 | Transcripts per million (rpm) [8]: 5745.2 rpm | Log2 differential normalized TPM ratio compared to glucose [9]: 1.6 | Log2 differential normalized TPM ratio compared to lactose [9]: 2.3 | Transcripts per million (rpm) [9]: 155 rpm | Log2 differential normalized TPM ratio compared to glucose [10]: 1.2 | Log2 differential normalized TPM ratio compared to lactose [10]: 0.9 | Transcripts per million (rpm) [10]: 15.5 rpm | Log2 differential normalized TPM ratio compared to glucose [11]: 1.3 | Log2 differential normalized TPM ratio compared to lactose [11]: 0.1 | Transcripts per million (rpm) [11]: 151.3 rpm | Log2 differential normalized TPM ratio compared to glucose [12]: −0.9 | Log2 differential normalized TPM ratio compared to lactose [12]: 1.5 | Transcripts per million (rpm) [12]: 1.5 rpm | Log2 differential normalized TPM ratio compared to glucose [13]: 2.7 | Log2 differential normalized TPM ratio compared to lactose [13]: 1.7 | Transcripts per million (rpm) [13]: 845.1 rpm | Log2 differential normalized TPM ratio compared to glucose [14]: 2.4 | Log2 differential normalized TPM ratio compared to lactose [14]: 2 | Transcripts per million (rpm) [14]: 797.3 rpm | Log2 differential normalized TPM ratio compared to glucose [15]: 2 | Log2 differential normalized TPM ratio compared to lactose [15]: 1.1 | Transcripts per million (rpm) [15]: 851.3 rpm | Log2 differential normalized TPM ratio compared to glucose [16]: 2.3 | Log2 differential normalized TPM ratio compared to lactose [16]: 2.5 | Transcripts per million (rpm) [16]: 537 rpm | Log2 differential normalized TPM ratio compared to glucose [17]: 1.7 | Log2 differential normalized TPM ratio compared to lactose [17]: 0.6 | Transcripts per million (rpm) [17]: 7.3 rpm | Log2 differential normalized TPM ratio compared to glucose [18]: 4.9 | Log2 differential normalized TPM ratio compared to lactose [18]: 1.1 | Transcripts per million (rpm) [18]: 84.9 rpm | Log2 differential normalized TPM ratio compared to glucose [19]: 3.2 | Log2 differential normalized TPM ratio compared to lactose [19]: −2.4 | Transcripts per million (rpm) [19]: 144.7 rpm | Log2 differential normalized TPM ratio compared to glucose [20]: 3.4 | Log2 differential normalized TPM ratio compared to lactose [20]: −2.3 | Transcripts per million (rpm) [20]: 144 rpm | Log2 differential normalized TPM ratio compared to glucose (LBA1459 Galactokinase, COG G): 2.3 | Log2 differential normalized TPM ratio compared to lactose (LBA1459 Galactokinase, COG G): −2.4 | Transcripts per million (rpm) (LBA1459 Galactokinase, COG G): 123.5 rpm | Log2 differential normalized TPM ratio compared to glucose [21]: −0.5 | Log2 differential normalized TPM ratio compared to lactose [21]: −6.5 | Transcripts per million (rpm) [21]: 13 rpm | Log2 differential normalized TPM ratio compared to glucose [22]: −0.3 | Log2 differential normalized TPM ratio compared to lactose [22]: −5 | Transcripts per million (rpm) [22]: 47.8 rpm | Log2 differential normalized TPM ratio compared to glucose (LBA1464 Transposase, COG L): −1 | Log2 differential normalized TPM ratio compared to lactose (LBA1464 Transposase, COG L): −3.4 | Transcripts per million (rpm) (LBA1464 Transposase, COG L): 94.4 rpm | Log2 differential normalized TPM ratio compared to glucose [23]: −0.3 | Log2 differential normalized TPM ratio compared to lactose [23]: −3.4 | Transcripts per million (rpm) [23]: 47.3 rpm | Log2 differential normalized TPM ratio compared to glucose [24]: 2.2 | Log2 differential normalized TPM ratio compared to lactose [24]: −6.7 | Transcripts per million (rpm) [24]: 24.1 rpm | Log2 differential normalized TPM ratio compared to glucose [25]: 0.8 | Log2 differential normalized TPM ratio compared to lactose [25]: −5.6
